Assay results as given in EP4644383A1 (Jiangsu Yahong Meditech Co., Ltd., priority 2022, dated 2024).
pIC50: −log10 of the molar value. Read-outs that look alike come from different tables or passages of the source.

Tests used:
FGFR3 = biological target: T1, FGFR3 (Homo sapiens, UniProt P22607); assay: FGFR3 kinase activity inhibition assay (LanthaScreen TR-FRET); assay type: biochemical; conditions: for Selectivity (X) FGFR1/FGFR3: ratio of IC50 FGFR1/FGFR3, selectivity towards FGFR3; for IC50: FGFR3 kinase, TR-FRET, read-out: IC50 (nM) FGFR3
T1 construct: FGFR3's cytoplasmic domain [436-806 (terminal) amino acids]; purchased Carna 08-135
Procedure: PV3552) and 10 mM EDTA were added to quench the kinase reaction, and incubated at 22°C for 60 minutes. • ⑤ The reaction was measured using a PerkinElmer EnVision multimode plate reader through TR-FRET dual wavelength detection. • 1. The RFU values were copied from the Envision program. • 2. The ratio of RFU 520nm/RFU 495nm was calculated. • 3. The value of the ratio was converted to a percentage inhibition value. % Inhibition = (max-data)/(max-min) × 100 [formula] "Min" represents the ratio of the control without enzyme, "max" represents the ratio of the DMSO control, and "data" represents the ratio of the compounds in wells with different concentrations. […] "Top" refers to the maximum response, "Bottom" refers to the minimum response, and "HillSlope" refers to the slope of the curve. According to the same method as that in the FGFR1 kinase activity inhibition assay, the inhibitory activities against FGFR2, FGFR3 and FGFR4 were tested using FGFR2's cytoplasmic domain [399-821 (terminal) amino acids] (Carna: 08-134), FGFR3's cytoplasmic domain [436-806 (terminal) amino acids] (Carna: 08-135) and FGFR4's cytoplasmic domain [460-802 (terminal) amino acids] (Carna: 08-136), respectively. […]

FGFR1 = biological target: T2, FGFR1 (Homo sapiens, UniProt P11362); assay: FGFR1 kinase activity inhibition assay (LanthaScreen TR-FRET); assay type: biochemical; conditions: for IC50: FGFR1 kinase, TR-FRET, read-out: IC50 (nM) FGFR1
T2 construct: cytoplasmic domain [398-822 (terminal) amino acids]; purchased Carna 08-133
Procedure: PV3552) and 10 mM EDTA were added to quench the kinase reaction, and incubated at 22°C for 60 minutes. • ⑤ The reaction was measured using a PerkinElmer EnVision multimode plate reader through TR-FRET dual wavelength detection. • 1. The RFU values were copied from the Envision program. • 2. The ratio of RFU 520nm/RFU 495nm was calculated. • 3. The value of the ratio was converted to a percentage inhibition value. % Inhibition = (max-data)/(max-min) × 100 [formula] "Min" represents the ratio of the control without enzyme, "max" represents the ratio of the DMSO control, and "data" represents the ratio of the compounds in wells with different concentrations. […] "Top" refers to the maximum response, "Bottom" refers to the minimum response, and "HillSlope" refers to the slope of the curve.

T1 sequence (P22607 436-806): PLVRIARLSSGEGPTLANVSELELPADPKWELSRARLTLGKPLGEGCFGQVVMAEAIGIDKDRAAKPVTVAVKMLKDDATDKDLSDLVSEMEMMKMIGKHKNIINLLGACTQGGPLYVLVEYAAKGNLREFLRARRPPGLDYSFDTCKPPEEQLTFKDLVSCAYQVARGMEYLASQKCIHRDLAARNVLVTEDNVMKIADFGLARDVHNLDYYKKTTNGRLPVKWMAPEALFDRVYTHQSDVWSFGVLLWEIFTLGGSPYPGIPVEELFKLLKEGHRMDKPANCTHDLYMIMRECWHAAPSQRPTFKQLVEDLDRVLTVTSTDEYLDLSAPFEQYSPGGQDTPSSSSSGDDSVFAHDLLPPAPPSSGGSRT
T2 sequence (P11362 398-822): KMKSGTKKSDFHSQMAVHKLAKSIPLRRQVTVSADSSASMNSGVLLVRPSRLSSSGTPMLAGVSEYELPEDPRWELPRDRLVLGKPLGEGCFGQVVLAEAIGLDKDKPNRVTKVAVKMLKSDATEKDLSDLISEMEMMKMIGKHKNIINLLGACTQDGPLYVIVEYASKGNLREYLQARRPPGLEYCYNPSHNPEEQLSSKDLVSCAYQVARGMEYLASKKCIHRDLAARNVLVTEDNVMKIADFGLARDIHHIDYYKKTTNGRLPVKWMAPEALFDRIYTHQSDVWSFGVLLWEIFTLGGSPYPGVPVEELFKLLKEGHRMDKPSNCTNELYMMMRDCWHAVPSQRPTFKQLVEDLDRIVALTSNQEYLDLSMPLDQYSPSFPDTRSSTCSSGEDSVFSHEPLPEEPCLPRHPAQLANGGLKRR

Structure (SMILES)	pIC50 (FGFR3)	Selectivity (X) FGFR1/FGFR3 (FGFR3)	pIC50 (FGFR1)	IC50 (FGFR3)	IC50 (FGFR1)
COc1cc(O[C@H](C)c2c(Cl)cncc2Cl)cc2c(-c3cnn(CCN4CCOCC4)c3)n[nH]c12 [Example 25, (R)-4-(2-(4-(5-(1-(3,5-dichloropyridin-4-yl)ethoxy)-7-methoxy-1H-indazol-3-yl)-1H-pyrazol-1-yl)ethyl)morpholine]	< 7.00	B (B represents 20 ≤ multiple X<50)	< 7.00	–	–
Cc1cc(O[C@H](C)c2c(Cl)cncc2Cl)cc2c(-c3cnn(CC4CC4)c3)n[nH]c12 [Example 26, (R)-3-(1-(cyclopropylmethyl)-1H-pyrazol-4-yl)-5-(1-(3,5-dichloropyridin-4-yl)ethoxy)-7-methyl-1H-indazole]	7.00 to 8.00	B (B represents 20 ≤ multiple X<50)	< 7.00	–	–
Cc1c(-c2n[nH]c3ccc(O[C@H](C)c4c(Cl)cncc4Cl)nc23)cnn1C [Example 30, (R)-5-(1-(3,5-dichloropyridin-4-yl)ethoxy)-3-(1,5-dimethyl-1H-pyrazol-4-yl)-1H-pyrazolo[4,3-b]pyridine]	7.00 to 8.00	A (A represents 1 ≤ multiple X<20)	7.00 to 8.00	–	–
C[C@@H](Oc1ccc2[nH]nc(-c3cnn(CCCN4CCOCC4)c3)c2n1)c1c(Cl)cncc1Cl [Example 32, (R)-4-(3-(4-(5-(1-(3,5-dichloropyridin-4-yl)ethoxy)-1H-pyrazolo[4,3-b]pyridin-3-yl)-1H-pyrazol-1-yl)propyl)morpholine]	–	A (A represents 1 ≤ multiple X<20)	–	< 1 nM	1 to 10 nM
C[C@@H](Oc1ccc2[nH]nc(-c3cnn(C4CCOCC4)c3)c2n1)c1c(Cl)cncc1Cl [Example 34, (R)-5-(1-(3,5-dichloropyridin-4-yl)ethoxy)-3-(1-(tetrahydro-2H-pyran-4-yl)-1H-pyrazol-4-yl)1H-pyrazolo[4,3-b]pyridine]	–	A (A represents 1 ≤ multiple X<20)	–	1 to 10 nM	1 to 10 nM
CC(=O)N1CCC(n2cc(-c3n[nH]c4ccc(O[C@H](C)c5c(Cl)cncc5Cl)nc34)cn2)CC1 [Example 35]	> 9.00	A (A represents 1 ≤ multiple X<20)	8.00 to 9.00	–	–
COCCn1cc(-c2n[nH]c3ccc(O[C@H](C)c4c(Cl)cncc4Cl)nc23)cn1 [Example 40, (R)-5-(1-(3,5-dichloropyridin-4-yl)ethoxy)-3-(1-(2-methoxyethyl)-1H-pyrazol-4-yl)-1H-pyrazolo[4,3-b]pyridine]	8.00 to 9.00	A (A represents 1 ≤ multiple X<20)	7.00 to 8.00	–	–
C[C@@H](Oc1ccc2[nH]nc(-c3cnn(CCS(C)(=O)=O)c3)c2n1)c1c(Cl)cncc1Cl [Example 42, (R)-5-(1-(3,5-dichloropyridin-4-yl)ethoxy)-3-(1-(2-(methylsulfonyl)ethyl)-1H-pyrazol-4-yl)-1H-pyrazolo[4,3-b]pyridine]	–	B (B represents 20 ≤ multiple X<50)	–	1 to 10 nM	10 to 100 nM
C[C@@H](Oc1ccc2[nH]nc(-c3cnn4c3CCC4)c2n1)c1c(Cl)cncc1Cl [Example 45, (R)-5-(1-(3,5-dichloropyridin-4-yl)ethoxy)-3-(5,6-dihydro-4H-pyrrolo[1,2-b]pyrazol-3-yl)-1H-pyrazolo[4,3-b]pyridine]	–	A (A represents 1 ≤ multiple X<20)	–	10 to 100 nM	> 100 nM
CCCn1cc(-c2n[nH]c3ccc(O[C@H](C)c4c(Cl)cncc4Cl)nc23)cn1 [Example 46, (R)-5-(1-(3,5-dichloropyridin-4-yl)ethoxy)-3-(1-propyl-1H-pyrazol-4-yl)-1H-pyrazolo[4,3-b]pyridine]	–	B (B represents 20 ≤ multiple X<50)	–	< 1 nM	10 to 100 nM
C[C@@H](Oc1ccc2[nH]nc(-c3cnn(CC4CC4)c3)c2n1)c1c(Cl)cncc1Cl [Example 49, (R)-3-(1-(cyclopropylmethy 1)-1H-pyrazol-4-yl)-5-(1-(3,5-dichloropyridin-4-yl)ethoxy)-1H-pyrazolo[4,3-b]pyridine]	–	B (B represents 20 ≤ multiple X<50)	–	1 to 10 nM	10 to 100 nM
C[C@@H](Oc1ccc2[nH]nc(-c3cnn(CCC#N)c3)c2n1)c1c(Cl)cncc1Cl [Example 50, (R)-3-(4-(5-(1-(3,5-dichloropyridin-4-yl)ethoxy)-1H-pyrazolo[4,3-b]pyridin-3-yl)-1H-pyrazol-1-yl)propionitrile]	–	A (A represents 1 ≤ multiple X<20)	–	< 1 nM	10 to 100 nM
Cc1ncc(-c2n[nH]c3ccc(O[C@H](C)c4c(Cl)cncc4Cl)nc23)cn1 [Example 52, (R)-5-(1-(3,5-dichloropyridin-4-yl)ethoxy)-3-(2-methylpyrimidin-5-yl)-1H-pyrazolo[4,3-b]pyridine]	–	A (A represents 1 ≤ multiple X<20)	–	10 to 100 nM	> 100 nM
C[C@@H](Oc1ccc2[nH]nc(-c3cnn(CCN4CCN(C)CC4)c3)c2n1)c1c(Cl)cncc1Cl [Example 53, (R)-5-(1-(3,5-dichloropyridin-4-yl)ethoxy)-3-(1-(2-(4-methylpiperazin-1-yl)ethyl)-1H-pyrazol-4-yl)-1H-pyrazolo[4,3-b]pyridine]	–	A (A represents 1 ≤ multiple X<20)	–	< 1 nM	1 to 10 nM
C[C@@H](Oc1ccc2[nH]nc(-c3cnn(CCN4CCN(S(C)(=O)=O)CC4)c3)c2n1)c1c(Cl)cncc1Cl [Example 56, (R)-5-(1-(3,5-dichloropyridin-4-yl)ethoxy)-3-(1-(2-(4-(methylsulfonyl)piperazin-1-yl)ethyl)-1H-pyrazol-4-yl)-1H-pyrazolo[4,3-b]pyridine]	–	A (A represents 1 ≤ multiple X<20)	–	< 1 nM	1 to 10 nM
CC(=O)N1CCN(CCn2cc(-c3n[nH]c4ccc(O[C@H](C)c5c(Cl)cncc5Cl)nc34)cn2)CC1 [Example 57, (R)-1-(4-(2-(4-(5-(1-(3,5-dichloropyridin-4-yl)ethoxy)-1H-pyrazolo[4,3-b]pyridin-3-yl)-1H-pyrazol-1-yl)ethyl)piperazin-1-yl)ethan-1-one]	–	A (A represents 1 ≤ multiple X<20)	–	< 1 nM	1 to 10 nM
C[C@@H](Oc1ccc2[nH]nc(-c3cnn(CC(=O)N4CCOCC4)c3)c2n1)c1c(Cl)cncc1Cl [Example 63, (R)-2-(4-(5-(1-(3,5-dichloropyridin-4-yl)ethoxy)-1H-pyrazolo[4,3-b]pyridin-3-yl)-1H-pyrazol-1-yl)-1-morpholinoethan-1-one]	–	A (A represents 1 ≤ multiple X<20)	–	1 to 10 nM	10 to 100 nM
C[C@@H](Oc1ccc2[nH]nc(-c3cnn(CCN4CCCC4=O)c3)c2n1)c1c(Cl)cncc1Cl [Example 64, (R)-1-(2-(4-(5-(1-(3,5-dichloropyridin-4-yl)ethoxy)-1H-pyrazolo[4,3-b]pyridin-3-yl)-1H-pyrazol-1-yl)ethyl)pyrrolidin-2-one]	–	A (A represents 1 ≤ multiple X<20)	–	1 to 10 nM	10 to 100 nM
CNCCNS(=O)(=O)c1ccc2[nH]nc(-c3cnn(C)c3)c2c1 [Example 76, 3-(1-methyl-1H-pyrazol-4-yl)-N-(2-(methylamino)ethyl)-1H-indazole-5-sulfonamide]	–	A (A represents 1 ≤ multiple X<20)	–	> 100 nM	> 100 nM
